Test results published in article PMC2962730 (Journal of neurochemistry, 2010).
Substitutions are numbered along the chain they refer to.

Legend:
[1] = tested on: rat VAChT (rVAChT) W331 mutants; settings: mutations of W331 in rVAChT; ref Ojeda et al. 2004; cited from earlier work
hVAChT W331A = biological target: T1, hVAChT W331A (Homo sapiens, UniProt Q16572, W331A); test: ACh equilibrium binding by competition against [3H]vesamicol
T1 sequence (Q16572 1-532 W331A): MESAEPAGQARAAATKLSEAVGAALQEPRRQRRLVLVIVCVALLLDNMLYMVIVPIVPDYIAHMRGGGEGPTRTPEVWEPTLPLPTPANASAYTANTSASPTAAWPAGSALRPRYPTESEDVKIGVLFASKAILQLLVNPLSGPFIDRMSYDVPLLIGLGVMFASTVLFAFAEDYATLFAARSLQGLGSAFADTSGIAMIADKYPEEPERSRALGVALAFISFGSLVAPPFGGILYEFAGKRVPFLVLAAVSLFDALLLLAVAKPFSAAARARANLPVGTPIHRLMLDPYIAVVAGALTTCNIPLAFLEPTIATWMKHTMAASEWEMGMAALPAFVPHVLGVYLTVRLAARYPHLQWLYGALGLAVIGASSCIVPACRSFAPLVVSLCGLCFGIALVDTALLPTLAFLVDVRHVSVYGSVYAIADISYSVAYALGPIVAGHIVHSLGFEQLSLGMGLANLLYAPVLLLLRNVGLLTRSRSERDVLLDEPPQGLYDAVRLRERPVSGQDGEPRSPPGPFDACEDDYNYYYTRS

hVAChT Y60W = biological target: T2, hVAChT Y60W (Homo sapiens, UniProt Q16572, Y60W); test: as above
T2 sequence (Q16572 1-532 Y60W): T1 sequence (Q16572 1-532 W331A) with Y60W, A331W

hVAChT Y60A = biological target: T3, hVAChT Y60A (Homo sapiens, UniProt Q16572, Y60A); test: [3H]ACh transport; format: biochemical
T3 sequence (Q16572 1-532 Y60A): T1 sequence (Q16572 1-532 W331A) with Y60A, A331W

hVAChT W325H = biological target: T4, hVAChT W325H (Homo sapiens, UniProt Q16572, W325H); test: ACh equilibrium binding by competition against [3H]vesamicol
T4 sequence (Q16572 1-532 W325H): T1 sequence (Q16572 1-532 W331A) with W325H, A331W

hVAChT W331L = biological target: T5, hVAChT W331L (Homo sapiens, UniProt Q16572, W331L); test: as above
T5 sequence (Q16572 1-532 W331L): T1 sequence (Q16572 1-532 W331A) with A331L

ACh bound more weakly than by wild-type (hVAChT W331A; W331A hVAChT vs wild-type): 11 fold | FHA, fraction of the ACh sites that have high affinity (hVAChT W331A; W331A hVAChT, pH 7.4, monophasic fit, FHA fixed to 1): 1.0 | Kd (hVAChT Y60W): 4.5 ± 0.1 mM | tighter binding of ACh than by wild-type (hVAChT Y60W; Y60W hVAChT vs wild-type): 2 fold | FHA, fraction of the ACh sites that have high affinity (hVAChT Y60W; Y60W hVAChT, pH 7.4): 0.86 ± 0.02 | Vmax/Bmax, ACh transport normalized to Bmax (hVAChT Y60A; pH 7.4): 4.7 ± 0.8 min⁻¹ | Km (hVAChT Y60A; read-out: KM, Michaelis-Menten constant for ACh transport, pH 7.4): 480 ± 320 µM | Kd (hVAChT W325H): 5.5 ± 0.9 mM | FHA, fraction of the ACh sites that have high affinity (hVAChT W325H; W325H hVAChT, pH 7.4): 0.82± 0.06 | ACh bound more weakly than by wild-type (hVAChT W331L; W331L hVAChT vs wild-type): 10 fold | FHA, fraction of the ACh sites that have high affinity (hVAChT W331L; W331L hVAChT, pH 7.4, monophasic fit, FHA fixed to 1): 1.0
SMILES: CC(=O)OCC[N+](C)(C)C [ACh, acetylcholine]
decrease in ACh affinity (equilibrium) [1]: ≤ 9 fold
